Experimental data taken from patent US9682995B2, “Amino-substituted isothiazoles” (BAYER PHARMA AKTIENGESELLSCHAFT, priority 2013, dated 2017).
pIC50: −log10 of the molar value.

What was measured:
Assay type in all cases: cell-based
[1] = tested on: Caco2; assay: Proliferation assay (crystal violet), Caco2; details: Homo sapiens, Caco-2, 96 h; Caco2, 4 days; read-out: Inhibition of proliferation IC50 Caco2
Method: (§1) Cultivated tumor cells (cells were ordered from ATCC, except HeLa-MaTu and HeLa-MaTu-ADR, which were ordered from EPO-GmbH, Berlin) were plated at a density of 1000 to 5000 cells/well, depending on the growth rate of the respective cell line, in a 96-well multititer plate in 200 μL of their respective growth medium supplemented 10% fetal calf serum. After 24 hours, the cells of one plate (zero-point plate) were stained with crystal violet (see below), while the medium of the other plates was replaced by fresh culture medium (200 μl), to which the test substances were added in various concentrations (0 μM, as well as in the range of 0.001-10 μM; the final concentration of the solvent dimethyl sulfoxide was 0.5%). The cells were incubated for 4 days in the presence of test substances. Cell proliferation was determined by staining the cells with crystal violet: the cells were fixed by adding 20 μl/measuring point of an 11% glutaric aldehyde solution for 15 minutes at room temperature. After three washing cycles of the fixed cells with water, the plates were dried at room temperature. The cells were stained by adding 100 μl/measuring point of a 0.1% crystal violet solution (pH 3.0). After three washing cycles of the stained cells with water, the plates were dried at room temperature. The dye was dissolved by adding 100 μl/measuring point of a 10% acetic acid solution. Absorption was determined by photometry at a wavelength of 595 nm. The change of cell number, in percent, was calculated by normalization of the measured values to the absorption values of the zero-point plate (=0%) and the absorption of the untreated (0 μm) cells (=100%). The IC50 values were determined by means of a 4 parameter fit.

[2] = tested on: DU145; assay: Proliferation assay (crystal violet), DU145; details: Homo sapiens, DU-145, 96 h; DU145, 4 days; read-out: Inhibition of proliferation IC50 DU145
Method: as §1

[3] = tested on: HeLa; assay: Proliferation assay (crystal violet), HeLa; details: Homo sapiens, 96 h, 4 days, read-out: Inhibition of proliferation IC50 HeLa
Method: as §1

[4] = tested on: B16F10; assay: Proliferation assay (crystal violet), B16F10; details: Mus musculus, B16-F10, 96 h; B16F10, 4 days; read-out: Inhibition of proliferation IC50 B16F10
Method: as §1

[5] = tested on: NCI-H460; assay: Proliferation assay (crystal violet), NCI-H460; details: Homo sapiens, 96 h; NCI-H460, 4 days; read-out: Inhibition of proliferation IC50 NCI-H460
Method: as §1

[6] = tested on: spindle assembly checkpoint; assay: SAC-Formation - Nocodazole-Induced Assay; details: Homo sapiens; HeLa cells, nocodazole 0.1 μg/ml, 24 h, phosphorylated histone H3 on serine 10
In short: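 HeLa cells were given nocodazole at 0.1 μg/ml final together with compounds (0.005–20 μM, 0.5% DMSO) for 24 h at 37° C. Mitotic cells were counted by phospho-histone H3 Ser10 immunostaining, with cell number from HOECHST 33342, by high-content imaging. The loss of mitotic cells was fitted with a four-parameter Hill equation.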

[7] = tested on: HeLa-MaTu-ADR; assay: Proliferation assay (crystal violet), HeLa-MaTu-ADR; details: 96 h, 4 days, read-out: Inhibition of proliferation IC50 HeLa-MaTu-ADR
Method: as §1

SMILES	pIC50 [1]	pIC50 [2]	pIC50 [3]	pIC50 [4]	pIC50 [5]	pIC50 [6]	pIC50 [7]
CCc1ccccc1NC(=O)c1c(C)nsc1Nc1ccnc(C#N)n1 [Example 6, 5-[(2-Cyanopyrimidin-4-yl)amino]-N-(2-ethylphenyl)-3-methyl-1,2-thiazole-4-carboxamide]	5.64	5.52	5.49	5.64	5.68	6.17	5.72
CCc1ccccc1NC(=O)c1c(C)nsc1Nc1cnc2ccccc2n1 [Example 19, N-(2-Ethylphenyl)-3-methyl-5-(quinoxalin-2-ylamino)-1,2-thiazole-4-carboxamide]	6.01	5.60	5.60	5.74	5.82	7.29	6.39
COc1ccc(NC(=O)c2c(C)nsc2Nc2cnc3cccc(C)c3n2)cn1 [Example 22, N-(6-methoxypyridin-3-yl)-3-methyl-5-[(8-methylquinoxalin-2-yl)amino]-1,2-thiazole-4-carboxamide]	5.80	5.66	5.89	6.02	6.10	6.68	6.12
COc1ccc(NC(=O)c2c(C)nsc2Nc2cnc3cc(Cl)ccc3n2)cn1 [Example 23, 5-[(6-Chloroquinoxalin-2-yl)amino]-N-(6-methoxypyridin-3-yl)-3-methyl-1,2-thiazole-4-carboxamide]	5.62	5.03	5.74	5.08	5.66	6.55	5.57
Cc1nsc(Nc2cc(C#N)ccn2)c1C(=O)Nc1ccc(F)c(F)c1 [Example 27, 5-[(4-Cyanopyridin-2-yl)amino]-N-(3,4-difluorophenyl)-3-methyl-1,2-thiazole-4-carboxamide]	6.35	6.46	5.70	6.66	6.66	6.96	6.62
Cc1nsc(Nc2ccc(C#N)cn2)c1C(=O)Nc1ccc(F)c(F)c1 [Example 28, 5-[(5-Cyanopyridin-2-yl)amino]-N-(3,4-difluorophenyl)-3-methyl-1,2-thiazole-4-carboxamide]	6.68	6.49	5.80	6.89	7.00	7.39	6.92
Cc1nsc(Nc2nc3c(C(F)(F)F)ccnc3s2)c1C(=O)Nc1ccc(Cl)c(F)c1 [Example 103, N-(4-Chloro-3-fluorophenyl)-3-methyl-5-{[7-(trifluoromethyl)[1,3]thiazolo[5,4-b]pyridin-2-yl]amino}-1,2-thiazole-4-carboxamide]			5.54			6.62	
Cc1nsc(Nc2cncc(C(=O)N(C)C)n2)c1C(=O)Nc1ccc(F)c(F)c1 [Example 104, 6-({4-[(3,4-Difluorophenyl)-carbamoyl]-3-methyl-1,2-thiazol-5-yl}amino)-N,N-dimethyl-pyrazine-2-carboxamide]			5.00			6.28	
Cc1nsc(Nc2cncc(N(C)C)n2)c1C(=O)Nc1ccc(F)c(F)c1 [Example 105, N-(3,4-Difluorophenyl)-5-{[6-(dimethylamino)pyrazin-2-yl]amino}-3-methyl-1,2-thiazole-4-carboxamide]			5.00			5.70	
Cc1nsc(Nc2cncc(C(=O)N3CCCC3)n2)c1C(=O)Nc1ccc(F)c(F)c1 [Example 106, N-(3,4-Difluorophenyl)-3-methyl-5-{[6-(pyrrolidin-1-ylcarbonyl)pyrazin-2-yl]amino}-1,2-thiazole-4-carboxamide]			5.43			6.59	
Cc1nsc(Nc2cncc(C(=O)N3CCOCC3)n2)c1C(=O)Nc1ccc(F)c(F)c1 [Example 107, N-(3,4-Difluorophenyl)-3-methyl-5-{[6-(morpholin-4-ylcarbonyl)pyrazin-2-yl]amino}-1,2-thiazole-4-carboxamide]			5.31			6.47	
CNC(=O)c1ccnc(Nc2snc(C)c2C(=O)Nc2ccc(F)c(F)c2)c1 [Example 108, 2-({4-[(3,4-Difluorophenyl)-carbamoyl]-3-methyl-1,2-thiazol-5-yl}amino)-N-methyliso-nicotinamide]			5.00			5.74	
Cc1nsc(Nc2cnc(C(=O)N(C)C)cn2)c1C(=O)Nc1ccc(F)c(F)c1 [Example 109, 5-({4-[(3,4-Difluorophenyl)carbamoyl]-3-methyl-1,2-thiazol-5-yl}amino)-N,N-dimethylpyrazine-2-carboxamide]			5.30			5.96	
Cc1nsc(Nc2ccc(C#N)cn2)c1C(=O)Nc1ccc(OC(C)C)nc1 [Example 110, 5-[(5-Cyanopyridin-2-yl)amino]-N-(6-isopropoxyridin-3-yl)-3-methyl-1,2-thiazole-4-carboxamide]			5.82			6.19	
Cc1nsc(Nc2cc(C#N)ccn2)c1C(=O)Nc1ccc(Oc2ccccc2)nc1 [Example 111, 5-[(4-Cyanopyridin-2-yl)amino]-3-methyl-N-(6-phenoxypyridin-3-yl)-1,2-thiazole-4-carboxamide]			5.68			6.70	
Cc1nsc(Nc2cnc3ccccc3n2)c1C(=O)Nc1ccc(Oc2ccccc2)nc1 [Example 112, 3-Methyl-N-(6-phenoxypyridin-3-yl)-5-(quinoxalin-2-ylamino)-1,2-thiazole-4-carboxamide]			5.70			7.74	
Cc1nsc(Nc2cnc3ccccc3n2)c1C(=O)Nc1ccc(Oc2ccc(F)cc2F)nc1 [Example 113, N-[6-(2,4-Difluorophenoxy)pyridin-3-yl]-3-methyl-5-(quinoxalin-2-ylamino)-1,2-thiazole-4-carboxamide]			6.06			6.33	
Cc1nsc(Nc2cnc3ccccc3n2)c1C(=O)Nc1ccc(OC2CCCCC2)nc1 [Example 115, N-[6-(Cyclohexyloxy)pyridin-3-yl]-3-methyl-5-(quinoxalin-2-ylamino)-1,2-thiazole-4-carboxamide]			5.89			7.05	
COc1ccc(Oc2ccc(NC(=O)c3c(C)nsc3Nc3cnc4ccccc4n3)cn2)cc1 [Example 116, N-[6-(4-Methoxyphenoxy)pyridin-3-yl]-3-methyl-5-(quinoxaline-2-ylamino)-1,2-thiazole-4-carboxamide]			5.49			5.80	
COc1ccc(Oc2ccc(NC(=O)c3c(C)nsc3Nc3cc(C#N)ccn3)cn2)cc1 [Example 117, 5-[(4-Cyanopyridin-2-yl)amino]-N-[6-(4-methoxyphenoxy)pyridin-3-yl]-3-methyl-1,2-thiazole-4-carboxamide]			5.49			6.57	
Cc1nsc(Nc2cc(C#N)ccn2)c1C(=O)Nc1ccc(OC2CCCCC2)nc1 [Example 118, 5-[(4-Cyanopyridin-2-yl)amino]-N-[6-(cyclohexyloxy)pyridin-3-yl]-3-methyl-1,2-thiazole-4-carboxamide]			5.77			7.22	
CCOc1ccc(NC(=O)c2c(C)nsc2Nc2cnc3ccccc3n2)cn1 [Example 119, N-(6-Ethoxypyridin-3-yl)-3-methyl-5-(quinoxalin-2-ylamino)-1,2-thiazole-4-carboxamide]			5.48			7.06	
COc1ncc(NC(=O)c2c(C)nsc2Nc2ccc(C#N)cn2)cc1C [Example 120, 5-[(5-Cyanopyridin-2-yl)amino]-N-(6-methoxy-5-methylpyridin-3-yl)-3-methyl-1,2-thiazole-4-carboxamide]			5.72			6.57	
COc1ncc(NC(=O)c2c(C)nsc2Nc2cnc3ccccc3n2)cc1C [Example 121, N-(6-Methoxy-5-methylpyridin-3-yl)-3-methyl-5-(quinoxalin-2-ylamino)-1,2-thiazole-4-carboxamide]			5.48			6.89	
Cc1nsc(Nc2cnc3ccccc3n2)c1C(=O)Nc1ccc(OC(C)C)nc1 [Example 122, N-(6-Isopropoxypyridin-3-yl)-3-methyl-5-(quinoxalin-2-ylamino)-1,2-thiazole-4-carboxamide]			5.74			7.23	
